Key:
C. reinhardtii CC-1928 = assay: Effect of copper on activity of hydrazones: in vitro growth inhibition of C. reinhardtii in TAP Cu minus / TAP Cu plus medium (Example 10); format: cell-based, Chlamydomonas reinhardtii; conditions: test compound 1 μg/mL, 48 h; for inhibition of growth at 1 µg/mL: Chlamydomonas reinhardtii, TAP Cu minus medium, read-out: % Inhn. Minus Copper Observed; for % Inhn. Plus Copper Observed: TAP Cu plus medium (CuCl2)
Method: In vitro toxicity assays against C. reinhardtii CC-1928 (wild type mt+137c green in dark subclone) obtained from the Chlamydomonas Resource Center at Duke University were conducted using TAP liquid growth medium described by Gorman and Levine Proc. Natl. Acad. Sci. USA 1965, 54, 1665-1669 except that CuSO4.5H2O, normally included as a component of Hutner's trace element stock solution (Hutner et al. Proc. Am. Philos. Soc. 1950, 94, 152-170), was omitted. The TAP medium lacking Cu (TAP Cu minus) was prepared by adding 400 mg NH4Cl, 10 mL of 100× Tris-Acetate (242 g Tris-base and 100 mL glacial acetic acid in 1000 mL milli Q water), and 8.3 mL of 120.5× phosphate buffer (14.34 g K2HPO4 and 7.26 g KH2PO4 in 1000 mL milli Q water) to milli Q water to make a total volume of 1 liter. The medium was treated with 0.5 g Chelex 100 resin (Bio-Rad Analytical grade, 50-100 mesh, sodium form, cat#142-2822) by stirring at room temperature for 1 hour. 900 mL were decanted and 45.9 mg of CaCl2.2H2O, 90 mg of MgSO4.7H2O and 0.9 mL Hutner's trace elements lacking CuSO4.5H2O were added and the solution was filter-sterilized. Medium containing copper (TAP Cu plus) was prepared by adding CuCl2.2H2O to the TAP Cu minus medium at 20 μM. Test compounds were dissolved in dimethylsulfoxide (DMSO) at 2 mg/mL then dilutions in TAP Cu minus and TAP Cu plus media were prepared in sterilized microcentrifuge tubes at 2 μg/mL. 100 μL aliquots of diluted compound were dispensed into flat-bottomed 96-well microtiter plates. C. reinhardtii was maintained under 12 h of light on TAP agar plates at 18° C. A loopful of cells was added to 50 mL of TAP Cu minus medium and the culture incubated with shaking at 200 rpm at 27° C. for 24 h. The culture (10 to 20 mL aliquot) was centrifuged in a bench centrifuge at 2000 rpm for 2 min. The resulting cell pellet was resuspended in 5 mL sterile milli Q water (which had been treated with Chelex 100 resin using 0.5 g resin per liter of water by stirring at room temperature for 1 h), and recentrifuged. The cells were resuspended in TAP Cu minus medium, and the suspension adjusted to 2×10^5 spores per mL. Microtiter plates containing compounds as described above were inoculated with 100 μL of this cell suspension and the plates incubated at 27° C. for 48 h before assessing algal growth by measuring light scattering in a NepheloStar plate-reader. Growth inhibition was determined by comparing growth in the presence of test compound with growth in control wells lacking test compound. Results for growth inhibition by test compounds at 1 μg/mL in TAP Cu plus medium (% Inhn Plus Copper Observed) were compared with predicted values (% Inhn Plus Copper Predicted) that were calculated using the formula set forth by S. R. Colby in Weeds 1967, 15, 20-22 based on results obtained for the same compounds in TAP Cu minus medium (% Inhn Minus Copper Observed). […] Results illustrate that hydrazones and copper produce a synergistic algicidal effect towards C. reinhardtii.

[1] = system: Synechocystis sp. strain 6803; assay: Effect of copper on activity of hydrazones: in vitro growth inhibition of Synechocystis in BG-11 Cu minus / Cu plus medium (Example 11); format: cell-based; conditions: 72 h; for % Inhn. Plus Copper Observed: BG-11 Cu plus medium
Method: In vitro toxicity assays against the cyanobacterium (blue-green alga) Synechocystis sp. strain 6803 were conducted using BG-11 medium except that copper micronutrient, normally included as CuSO4.5H2O, was omitted. The medium, termed BG-11 Cu minus, was prepared by dissolving 1.5 g NaNO3, 40 mg K2HPO4, 6 mg citric acid, 1 mg Na2EDTA and 20 mg Na2CO3 in 1 liter of milli Q water and treating the solution with 0.5 g Chelex 100 resin (Bio-Rad Analytical grade, 50-100 mesh, sodium form, cat#142-2822) by stifling at room temperature for 1 h. 900 mL were decanted and 67.5 mg MgSO4.7H2O, 32.4 mg […], 5.4 mg ferric ammonium citrate and 0.9 mL trace metal mix A5 without copper (2.86 g H3BO3, 1.81 g MnCl2.4H2O, 222 mg ZnSO4.7H2O, 390 mg Na2MoO4.2H2O and Co(NO3)2.6H2O in 1 L Milli Q water) was added. The pH was adjusted to 7.1 and the medium was filter-sterilized. Medium containing copper (BG-11 Cu plus) was prepared by adding CuCl2.2H2O to the BG-11 Cu minus medium at 0.2 μM. Test compounds were dissolved in dimethylsulfoxide (DMSO) at 2 mg/mL then appropriate dilutions in BG-11 Cu minus and BG-11 Cu plus media were prepared in sterilized microcentrifuge tubes. 100 μL aliquots were dispensed into flat-bottomed 96-well microtiter plates. Synechocystis was maintained under 24 h of light on BG-11 agar plates at 27° C. A loopful of cells was added to 50 mL of BG-11 Cu minus growth medium and the culture was incubated with shaking at 200 rpm at 27° C. for 24 h. The culture (10 to 20 mL aliquot) was centrifuged in a bench centrifuge at 2400 rpm for 2 min. The resulting cell pellet was resuspended in 5 mL sterile milli Q water (which had been treated with Chelex 100 resin using 0.5 g resin per liter of water by stirring at room temperature for 1 h), and recentrifuged. The cells were resuspended in BG-11 Cu minus medium, and the suspension adjusted to 4×10^5 spores per mL. Microtiter plates containing compounds as described above were inoculated with 100 μL of this cell suspension and the plates incubated at 27° C. for 72 h before assessing algal growth by measuring light scattering in a NepheloStar plate reader. Growth inhibition was determined by comparing growth in the presence of test compound with growth in control wells lacking test compound. Results for growth inhibition by test compounds in BG-11 Cu plus medium (% Inhn Plus Copper Observed) were compared with predicted values (% Inhn Plus Copper Predicted) that were calculated using the formula set forth by S. R. Colby in Weeds 1967, 15, 20-22 based on-results obtained for the same compounds in BG-11 Cu minus medium (% Inhn Minus Copper Observed) and the inhibition attributed to copper chloride alone, as determined by comparing growth in copper-minus and copper-plus media without any test compound across experiments. Results illustrate that hydrazones and copper produce a synergistic algicidal effect towards Synechocystis.

[2] = Synechocystis, Test Concn. 0.05 μg/mL, BG-11 Cu minus medium, read-out: % Inhn. Minus Copper Observed
[3] = Synechocystis, Test Concn. 0.0125 μg/mL, BG-11 Cu minus medium, read-out: % Inhn. Minus Copper Observed

| Structure (SMILES) | inhibition of growth at 1 µg/mL (C. reinhardtii CC-1928) [%] | % Inhn. Plus Copper Observed (C. reinhardtii CC-1928) [%] | inhibition of growth at 0.05 µg/mL [1, 2] [%] | % Inhn. Plus Copper Observed ([1]; Test Concn. 0.05 μg/mL) [%] | melting point [°C] | inhibition of growth at 0.0125 µg/mL [1, 3] [%] | % Inhn. Plus Copper Observed ([1]; Test Concn. 0.0125 μg/mL) [%] | inhibition of growth at 0.025 µg/mL ([1]; Synechocystis, Test Concn. 0.025 μg/mL, BG-11 Cu minus medium, read-out: % Inhn. Minus Copper Observed) [%] | % Inhn. Plus Copper Observed ([1]; Test Concn. 0.025 μg/mL) [%] |
| --- | --- | --- | --- | --- | --- | --- | --- | --- | --- |
| Cc1cccc(C(=O)N/N=C/c2cccc(Cl)c2O)c1 [Compound 50] | 6 | 97 | -7 | 95 | 166 to 169 | – | – | – | – |
| Cc1cccc(C(=O)N/N=C/c2c(Cl)ccc(Cl)c2O)c1 [Compound 42] | 10 | 96 | 10 | 94 | 214 to 216 | – | – | – | – |
| O=C(N/N=C/c1c(C(F)(F)F)ccc(Cl)c1O)c1ccccc1O [Compound 57] | -11 | 95 | 61 | 92 | 278 to 280 | – | – | – | – |
| O=C(N/N=C/c1cccc(C(F)(F)F)c1O)c1ccc(Cl)cc1 [Compound 35] | 9 | 97 | 26 | 91 | 215 to 216 | – | – | – | – |
| C/C(=N\NC(=O)c1ccc(Cl)cc1)c1cc(F)cc(F)c1O [Compound 62] | 0 | 95 | 60 | 95 | 276 to 280 | – | – | – | – |
| O=C(N/N=C/c1cc(C(F)(F)F)cc(Cl)c1O)c1ccccc1 [Compound 24] | -2 | 90 | 45 | 93 | 216 to 222 | – | – | – | – |
| Cc1cccc(C(=O)N/N=C/c2ccc(Cl)c(Cl)c2O)c1 [Compound 38] | 15 | 94 | 49 | 93 | 212 to 214 | – | – | – | – |
| O=C(N/N=C/c1cc(C(F)(F)F)cc(Cl)c1O)c1ccc(F)cc1 [Compound 29] | 16 | 96 | 11 | 96 | 200 to 202 | – | – | – | – |
| C/C(=N\NC(=O)c1ccc(Cl)cc1)c1cccc([N+](=O)[O-])c1O [Compound 23] | -37 | 89 | – | – | 241 to 251 | 27 | 92 | – | – |
| O=C(N/N=C/c1cccc(C(F)(F)F)c1O)c1ccccc1O [Compound 36] | 7 | 96 | – | – | 230 to 234 | 28 | 87 | – | – |
| O=C(N/N=C/c1ccc(Cl)c(Cl)c1O)c1cccc(F)c1 [Compound 39] | 8 | 91 | 31 | 92 | 215 to 218 | – | – | – | – |
| Cc1ccc(C(=O)N/N=C/c2cccc(C(F)(F)F)c2O)c(O)c1 [Compound 37] | 12 | 97 | – | – | 248 to 253 | 44 | 88 | – | – |
| C/C(=N\NC(=O)c1c(C)cccc1O)c1cc(Cl)cc(Cl)c1O [Compound 58] | 3 | 93 | – | – | 245 | – | – | 46 | 64 |
| O=C(N/N=C/c1c(Cl)ccc(Cl)c1O)c1ccc(F)cc1 [Compound 43] | 9 | 93 | 23 | 95 | 264 to 267 | – | – | – | – |
| O=C(N/N=C/c1cc(Cl)cc(C(F)(F)F)c1O)c1ccccc1O [Compound 48] | 18 | 92 | 32 | 95 | 258 to 260 | – | – | – | – |
| C/C(=N\NC(=O)c1ccccc1)c1ccccc1O [Compound 2] | 10 | 95 | -8 | 97 | 185 to 187 | – | – | – | – |

Reference: patent US8906829B2, “Synergistic algicidal compositions including hydrazone derivatives and copper” (Dow AgroSciences LLC, priority 2010, dated 2014)
